Measurements as given in PMC9049077, “Unveiling the anti-cancer mechanism for half-sandwich and cyclometalated Ir(III)-based complexes with functionalized α-lipoic acid” (RSC Advances, 2020).
Read-outs that look alike come from different tables or passages of the source.

Assays:
[1] = system: A2780 cells (epithelial ovarian carcinoma); test: MTT cytotoxicity assay, A2780; format: cell-based
Experimental: (§1) The α-lipoic acid (LA) and the functionalized N^∧N-LA ligand were also evaluated for comparison. […]
(§2) Cell lines and culture conditions
(§3) A549, A549R, MCF-7, A2780, HeLa and LO2 cells were obtained from Experimental Animal Center of Sun Yat-Sen University (Guangzhou, China). Cells were routinely cultured in DMEM (Dulbecco’s modified Eagle’s medium, Gibco BRL) or RPMI 1640 (Roswell Park Memorial Institute medium 1640, Gibco BRL) medium containing 10% FBS (fetal bovine serum, Gibco BRL), 100 μg/mL streptomycin, and 100 U/mL penicillin (Gibco BRL). The cells were cultured in tissue culture flasks in a humidified incubator (BB 150 CO2 incubator, Thermo Fisher Scientific, USA), which provided an atmosphere of 5% CO2 and 95% air at a constant temperature of 37 °C. Cisplatin-resistant A549R […]
(§4) cells were cultured in RPMI 1640 with additional cisplatin to maintain the drug resistance.
(§5) Cytotoxicity assay (MTT assay)
(§6) The cytotoxicity of LA, N^N-LA and complexes synthesized towards various cancer cell lines was determined by MTT assay. After plating 5000 cells per well in 96-well plates, the cells were pre-incubated in drug-free media for 24 h at 37 °C to grow to confluence. The complexes were dissolved in DMSO (1%, v/v) just before the experiments, and diluted with fresh media immediately. Then, cells were incubated with a series of different concentrations of the tested complexes for 44 h at 37 °C. After that, 20 μL of MTT solution (5 mg/mL) was added to each well, and the plates were incubated for an additional 4 h. The medium was carefully removed and 150 μL DMSO was added per well. The plates were incubated for 10 min with shaking. The absorbance at 595 nm was measured using a microplate reader (LabServ K3, Part of Thermo Fisher Scientific, USA). Each well was triplicated to gain the mean values. IC 50 values quoted are mean ± SEM. […]

[2] = system: MCF-7 cells (human breast carcinoma); test: MTT cytotoxicity assay, MCF-7; format: cell-based
Experimental: as §1, §2, §3, §4, §5, §6

[3] = system: LO2 cells (human normal liver); test: MTT cytotoxicity assay, LO2; format: cell-based
Experimental: as §1, §2, §3, §4, §5, §6

[4] = system: A549R cells (cisplatin-resistant A549); test: MTT cytotoxicity assay, A549R; format: cell-based, human
Experimental: as §1, §2, §3, §4, §5, §6

[5] = system: HeLa cells (human cervical carcinoma); test: MTT cytotoxicity assay, HeLa; format: cell-based
Experimental: as §1, §2, §3, §4, §5
(§7) The cytotoxicity of LA, N^N-LA and complexes synthesized towards various cancer cell lines was determined by MTT assay. After plating 5000 cells per well in 96-well plates, the cells were pre-incubated in drug-free media for 24 h at 37 °C to grow to confluence. The complexes were dissolved in DMSO (1%, v/v) just before the experiments, and diluted with fresh media immediately. Then, cells […]
(§8) that, 20 μL of MTT solution (5 mg/mL) was added to each well, and the plates were incubated for an additional 4 h. The medium was carefully removed and 150 μL DMSO was added per well. The plates were incubated for 10 min with shaking. The absorbance at 595 nm was measured using a microplate reader (LabServ K3, Part of Thermo Fisher Scientific, USA). Each well was triplicated to gain the mean values. IC 50 values quoted are mean ± SEM. […]

[6] = system: A549 cells (human lung carcinoma); test: MTT cytotoxicity assay, A549; format: cell-based
Experimental: as §1, §2, §3, §4, §5, §7, §8

tested cancer cell lines = test: MTT cytotoxicity assay, summary over the tested cell lines; format: cell-based; details: Homo sapiens, 48 h, read-out: IC50 over all tested cancer cell lines
Experimental: as §1, §2, §3, §4, §5
The cytotoxicity of LA, N^N-LA and complexes synthesized towards various cancer cell lines was determined by MTT assay. After plating 5000 cells per well in 96-well plates, the cells were pre-incubated in drug-free media for 24 h at 37 °C to grow to confluence. […] The absorbance at 595 nm was measured using a microplate reader (LabServ K3, Part of Thermo Fisher Scientific, USA). […]

[7] = reported value; cited from earlier work
A549 cells = details: cited from earlier work
[8] = system: HeLa cells (human cervical carcinoma); parameters: method as in earlier work; details: 24 h incubation; ref 29 (supplementary reference 9); cited from earlier work
[9] = system: MCF-7 cells (human breast carcinoma); parameters: method as in earlier work; details: 24 h incubation; ref 29 (supplementary reference 9); cited from earlier work
[10] = system: A549 cells (human lung carcinoma); parameters: method as in earlier work; details: 24 h incubation; ref 29 (supplementary reference 9); cited from earlier work
[11] = system: MCF-7 cells (human breast carcinoma); test: MTT cytotoxicity assay, MCF-7; format: cell-based; details: 24 h incubation
[12] = Homo sapiens, A549, 48 h incubation

Structure (SMILES)	IC50 ([1]; 48 h incubation)	IC50 ([2]; 48 h incubation)	IC50 ([3]; 48 h incubation)	IC50 ([4]; 48 h incubation)	IC50 ([5]; 48 h incubation)	IC50 ([6]; 48 h incubation)	other results
Cc1ccnc(-c2cc(CN)ccn2)c1.F[P-](F)(F)(F)(F)F.[Ir+3].[c-]1ccccc1-c1ccccn1.[c-]1ccccc1-c1ccccn1 [Ir-NH2, [Ir(C^∧N)2(N^∧N-NH2)]PF6]	8.08 ± 0.2 µM	11.6 ± 0.48 µM	8.97 ± 0.55 µM	19 ± 0.59 µM	21 ± 0.95 µM	11.2 ± 0.65 µM	–
O=C(O)CCCCC1CCSS1 (stereo not drawn) [LA, α-lipoic acid]	–	–	–	–	–	–	IC50 ([1]; Homo sapiens, A2780, 48 h incubation): > 200 µM; IC50 (tested cancer cell lines): > 200 µM; IC50 ([2]; Homo sapiens, MCF7, 48 h incubation): > 200 µM; IC50 ([3]; Homo sapiens, L02, 48 h incubation): > 200 µM; IC50 [4, 12]: > 200 µM; IC50 ([5]; Homo sapiens, HeLa, 48 h incubation): > 200 µM; IC50 [6, 12]: > 200 µM
Cc1ccnc(-c2cc(CNC(=O)CCCCC3CCSS3)ccn2)c1 (stereo not drawn) [N^∧N-LA]	84.5 ± 4.1 µM	139 ± 2.2 µM	96 ± 6.7 µM	> 200 µM	67.5 ± 5 µM	> 200 µM	–
C(=NC(c1ccccc1)(c1ccccc1)c1ccccc1)c1ccccn1.Cc1c(C)c(C)[c-](C)c1C.F[P-](F)(F)(F)(F)F.[Cl-].[Ir+3] [[(η^5-Cp*)Ir(N^∧N)Cl]PF6, [(η^5-Cp*)Ir(N^∧N)Cl]PF6 (N^∧N = (triphenylmethyl)(pyridine-2-ylmethylene)amine)]	–	–	–	–	–	–	Hydrolysis rate constant [7]: 0.0084 min⁻¹; Cellular uptake in A549 cells (A549 cells): 4.5 ng per 10^6 cells
N.N.[Cl][Pt][Cl] [cis-Pt, cisplatin, reference compound]	4.32 ± 0.25 µM	8.7 ± 0.57 µM	3.97 ± 0.25 µM	17.9 ± 0.77 µM	7.59 ± 0.46 µM	10.5 ± 0.63 µM	IC50 [8]: 20.2 ± 1.8 µM; IC50 [9]: 31.4 ± 3 µM; IC50 [10]: 38.6 ± 0.9 µM; IC50 [11]: 23.5 ± 0.82 µM; IC50 ([5]; 24 h incubation): 17.9 ± 0.47 µM; IC50 ([6]; 24 h incubation): 22.4 ± 1.5 µM
